In the test the target is T1, 17betaHSD1 (Homo sapiens, UniProt P14061).
T1 sequence (P14061 1-328): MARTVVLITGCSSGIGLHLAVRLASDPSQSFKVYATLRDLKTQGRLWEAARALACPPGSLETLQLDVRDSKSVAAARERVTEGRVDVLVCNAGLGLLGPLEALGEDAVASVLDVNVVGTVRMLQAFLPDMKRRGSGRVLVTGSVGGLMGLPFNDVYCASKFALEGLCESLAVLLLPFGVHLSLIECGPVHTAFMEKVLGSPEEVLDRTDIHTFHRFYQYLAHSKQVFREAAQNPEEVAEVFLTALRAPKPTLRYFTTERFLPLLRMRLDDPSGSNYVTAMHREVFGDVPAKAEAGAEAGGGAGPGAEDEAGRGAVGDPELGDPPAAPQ
Nature of the test: screen of gossypol related compounds against 17betaHSD1 (enzyme activity). The format is biochemical. Conditions: for Ki: read-out: inhibition constant. The protocol: Seven gossypol related compounds were screened against 17betaHSD1. […] Four gossypol derivatives, in which the aldehyde functional group is modified, were tested. The peri-acylated nitrites, gossylic nitrile diacetate and gossylic nitrile divalerate, represent compounds in which the aldehyde group is [drawing 13] converted to a nitrile, and the peri hydroxyl of gossypol is derivatized.
Gossylic iminolactone and gossylic lactone were the most promising compounds, producing 80-90% reduction in enzyme activity. The inhibition constants for gossylic lactone and gossylic iminolactone were determined to be 2.2 and 4.3 uM respectively.

Consider `Cc1cc2c(C(C)C)c(O)c(O)c3c2c(c1-c1c(C)cc2c(C(C)C)c(O)c(O)c4c2c1OC4=N)OC3=N` [Gossylic iminolactone, gossylic iminolactone], for which the Ki came out at 4.3 µM. For `CC(=O)Oc1c(-c2c(C)cc3c(C(C)C)c(O)c(O)c(C#N)c3c2OC(C)=O)c(C)cc2c(C(C)C)c(O)c(O)c(C#N)c12` [Gossylic nitrile diacetate, gossylic nitrile diacetate], for the setting “concentrations not given”, the “reduction in enzyme activity” value worked out at 13%.

Consider `Cc1cc2c(C(C)C)c(O)c(O)c3c2c(c1-c1c(C)cc2c(C(C)C)c(O)c(O)c4c2c1OC4=O)OC3=O` [gossylic lactone], for which the Ki was determined as 2.2 µM. Regarding `CCCCC(=O)Oc1c(-c2c(C)cc3c(C(C)C)c(O)c(O)c(C#N)c3c2OC(=O)CCCC)c(C)cc2c(C(C)C)c(O)c(O)c(C#N)c12` [gossylic nitrile divalerate], for the setting “concentrations not given”, the “reduction in enzyme activity (in words)” value is recorded as “no reduction”.

These data come from patent US20050228038A1, “11-Beta hydroxysteroid dehydrogenase type 1 inhibitors as anti-obesity/anti-diabetes compounds and 17-beta hydrosteroid dehydrogenase type I inhibitors as useful agents for the treatment of cancers, especially breast cancer” (priority 2004, published 2005).
